Tests used:
[1] = system: dPANK/fbl RNAi treated Drosophila S2 cells; assay: dPANK/fbl RNA interference in Drosophila S2 cells, rescue by CoA or 4′-phosphopantetheine; type: cell-based; conditions: compound added to the medium
Description: Drosophila S2 Cell Culture, RNA Interference, and CoA and 4′-phosphopantetheine treatment: Drosophila Schneider's S2 cells were maintained at 25° C. in Schneider's Drosophila medium (Invitrogen) supplemented with 10% heat inactivated fetal calf serum (Gibco) and antibiotics (penicillin/streptomycin, Invitrogen) under laboratory conditions. Synthesis of RNAi constructs and RNA interference (dsRNA) treatment was carried out as described previously (Siudeja K et al, EMBO Mol Med 3, 755-766 (2011)). Non-relevant (human gene; hMAZ) dsRNA was used as control. The cells were incubated for 4 days to induce an efficient knock-down. Cells were then subcultured, with or without CoA (Sigma-Aldrich, Cat. No: C4780—which is used for all the experiments wherever stated below) or 4′-phosphopantetheine (PPanSH) at different concentrations and were maintained for additional 3 days until analysis for rescue efficiency of the compounds was performed. The stock solutions of compounds were made in sterile water and stored in −20° C. until use.
Drosophila S2 Cell Immunofluorescence Staining: For immunofluorescence Drosophila S2 cells were seeded on Poly-L-Lysine coated (Sigma-Aldrich) glass microscope slides and allowed to settle for 45 min. Cells were fixed with 3.7% formaldehyde (Sigma Aldrich) for 20 min, washed briefly with PBS+0.1% Triton-X-100 (Sigma Aldrich) and permeabilized with PBS+0.2% Triton-X-100 for 20 min. The slides were incubated in primary antibody (rabbit anti-AcLys, Cell Signaling Cat No: 9441, 1:500) to visualize histone acetylation levels in PBS+0.1% Triton-X-100 overnight and after an additional washing step in PBS+0.1% Triton-X-100 they were incubated in secondary goat anti-rabbit-Alexa488 antibody (Molecular Probes) for two hours at room temperature (RT). F-actin was detected with Rhodamin-Phalloidin (20 U/ml)(Invitrogen) and DNA by staining with DAPI (0.2 ug/ml) (Thermo Scientific). Finally the samples were mounted in 80% glycerol and analyzed using a Leica fluorescence microscope with Leica software. Adobe Photoshop and Illustrator (Adobe Systems Incorporated, San Jose, Calif., USA) were used for image assembly.

[2] = system: C. elegans pantothenate kinase (pnk-1) mutants; assay: C. elegans pnk-1 mutant motility and lifespan with CoA in the food; type: in vivo, Caenorhabditis elegans; conditions: CoA added to the food
Description: C. elegans Media and Strains: Standard culturing conditions were used for C. elegans maintenance at 20° C. N2 strain was used as a wild-type control. VC927, the PANK deletion mutant pnk-1 (ok1435)I/hT2[bli-4(e937) let-? (q782)qIs48](I; III), was obtained from the Caenorhabditis Genetics Center. To obtain synchronous cultures, worms were bleached with hypochlorite, and allowed to hatch in M9 buffer (3 g KH2PO4, 6 g Na2HPO4, 5 g NaCl, 1 ml 1 M MgSO4, H2O to 1 liter) overnight and cultured on standard Nematode Growth Medium (NGM) plates seeded with OP50 strain of Escherichia coli.
C. elegans Motility Assay: After synchronization, L1 C. elegans were grown on control NMG plates or NGM plates containing various concentrations of CoA. One-day old adults were placed in a drop of M9 buffer and allowed to recover for 30 sec. During the following 30 sec, the number of body bends was counted. A movement was scored as a bend when both the anterior and posterior ends of the animal turned to the same side. At least 15 worms were scored per condition and each experiment was repeated thrice.

[3] = Conversion of CoA in human serum by HPLC; type: in vitro ADME
Text: The conversion of CoA to 4′-phosphopantetheine was further investigated in mouse serum and in human serum.

[4] = Parallel Artificial Membrane Permeability Assay (PAMPA); type: in vitro ADME; conditions: 5 h incubation, room temperature, phosphate-buffered saline
Description: FIG. 13E is a depiction of a Parallel Artificial Membrane Permeability Assay (PAMPA). Experiments were performed according to the manufacturer's instructions. In this assay, a two-well system is separated by an artificial lipid-oil-lipid membrane (shown in grey). To the lower (donor) compartment, a compound dissolved in buffer is added, the upper (acceptor) compartment contains only buffer. After 5 hours of incubation, concentration of compound is measured in both wells to assess its propensity to diffuse over the artificial membrane. The permeability was calculated according to the manufacturer's instruction (formulas are depicted to the right). Compounds that are below the assay threshold are predicted to be unable to pass membranes passively, whereas compounds above the threshold are able to pass membranes passively. Ceq=Equilibrium Concentration, CD=Concentration in donor well, VD=Volume of donor well (0.3 ml), CA=Concentration in acceptor well, VA=Volume of acceptor well (0.2 ml), P=Permeability, S=Membrane area (0.3 cm2), t=Incubation time (18000 s).
PAMPA assay procedure: Parallel Artificial Membrane Permeability Assay (PAMPA) was performed and processed according to manufacturer's instructions (BD Gentest Pre-coated PAMPA plates). Briefly, two superimposed wells are separated by an artificial lipid-oil-lipid membrane. The compound of interest (PPanSH, CoA, caffeine, amiloride) was added to the bottom well in phosphate-buffered saline, whereas the top well was filled with phosphate-buffered saline alone. After 5 h of incubation at room temperature, concentrations of the different compounds were measured using UV-VIS absorption spectroscopy (BMG Labtech SPECTROstar Omega) along with calibration curves for all compounds. The permeability efficiency was further calculated according to manufacturer's instructions. For caffeine and amiloride, four replicates were performed; for PPanSH and CoA twelve replicates were performed. Caffeine and amiloride were obtained from Sigma.

CC(C)(COP(=O)(O)OP(=O)(O)OC[C@H]1O[C@@H](n2cnc3c(N)ncnc32)[C@H](O)[C@@H]1OP(=O)(O)O)[C@@H](O)C(=O)NCCC(=O)NCCS [CoA, Coenzyme A]
cell count of dPANK/fbl RNAi treated S2 cells [1]: rescued the cell count in a concentration-dependent manner | histone (protein) acetylation of dPANK/fbl RNAi treated S2 cells ([1]; immunofluorescence): rescued | lifespan of pnk-1 mutants [2]: improved these phenotypes significantly | motility of pnk-1 mutants [2]: improved these phenotypes significantly | conversion of CoA in serum [3]: converted to 4′-phosphopantetheine | membrane permeation (PAMPA) [4]: poorly permeating molecule and not

From US20220133753A1, “COMPOSITIONS AND METHODS USEFUL FOR TREATING DISEASES CHARACTERIZED BY INSUFFICIENT PANTOTHENATE KINASE ACTIVITY” (Comet Therapeutics, Inc., priority 2016, published 2022)
